Read-outs that look alike come from different tables or passages of the source.
Tests used:
HepG2 cells = conditions: cited from earlier work
[1] = normocholesterolemic male Sprague-Dawley rats; 5.5% by weight of rat chow, approximately 4 g/Kg body weight; cited from earlier work
[2] = Oral PI, plasma HDL cholesterol and apoA-I; format: in vivo; conditions: conventional formulations, about 5.6 g/day
Text: The efficacy of orally administered phosphatidyl-inositol(PI) for raising plasma HDL cholesterol and apoA-I levels can be improved considerably (e.g. 2- to 8-fold) by combining PI with an intestinal absorption enhancer (IAE) (U.S. patent application Ser. No. 60/684212, herein incorporated by reference).

[3] = oral PI combined with an intestinal absorption enhancer (IAE); cited from earlier work

**Q.** For `CC(C)c1c(C(=O)Nc2ccccc2)c(-c2ccccc2)c(-c2ccc(F)cc2)n1CC[C@@H](O)C[C@@H](O)CC(=O)O` [atorvastatin], which “inhibition of cholesterol synthesis” value (HepG2 cells; concentrations between 0.01 to 10 μM) is on record?
**A.** 45-65%

**Q.** With Phosphatidic acid [PA] as the compound, how does the “decrease in plasma triglycerides” value [1] read?
**A.** about 40%

**Q.** And the “increase in HDL cholesterol” value [1]?
**A.** about 2 fold

**Q.** What does the source list for phosphatidylinositol [PI]?
**A.** increase in apoA-I [2]: ~10%; increase in plasma HDL cholesterol [2]: ~20%; improvement of efficacy for raising plasma HDL cholesterol and apoA-I levels [3]: 2- to 8 fold; inhibition of cholesterol synthesis (HepG2 cells; 11.7 μM): 50%
